Data published in patent publication US6476044B1, “Use of morphine derivatives as medicaments for the treatment of neuropathic problems” (Gruenenthal GmbH, priority 2000, dated 2002).
Structures can show the parent of a compound that is named as a salt. Where two headings read alike, the source gives them in different places.

Legend:
ORL1 receptor [1] = molecular target: T1, ORL1 receptor (Homo sapiens, UniProt P41146); experiment: Receptor binding assay with 3H-nociceptin/orphanin FQ using membranes of recombinant CHO-ORL1 cells; parameters: expressed in transfected cells; host or cells: recombinant CHO-ORL1 cells (membranes)
T1 sequence (P41146 whole entry): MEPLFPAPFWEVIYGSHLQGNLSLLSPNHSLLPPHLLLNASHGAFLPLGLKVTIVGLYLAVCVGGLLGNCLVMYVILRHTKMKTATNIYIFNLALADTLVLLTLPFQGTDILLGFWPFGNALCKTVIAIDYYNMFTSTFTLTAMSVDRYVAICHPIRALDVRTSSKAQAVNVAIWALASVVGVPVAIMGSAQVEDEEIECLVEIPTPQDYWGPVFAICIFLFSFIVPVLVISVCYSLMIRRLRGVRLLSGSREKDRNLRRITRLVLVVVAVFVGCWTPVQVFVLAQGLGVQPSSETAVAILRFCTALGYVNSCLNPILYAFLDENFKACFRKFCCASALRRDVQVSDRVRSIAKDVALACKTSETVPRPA
Protocol: Furthermore a receptor binding assay with ^3H-nociceptin/ orphanin FQ was carried out with the compounds according to the invention using membranes of recombinant CHO-ORL1 cells. This test system was implemented according to the method proposed by Ardati et al. (Mol. Pharmacol., 51, 1997, pp. 816-824). The concentration of ^3H-N/OFQ in these experiments was 0.5 nM. The binding assays were performed in each case with 20 μg of membrane protein per 200 μl of batch in 50 mM of Hepes, pH 7.4, 10 mM MgCl2 and 1 mM EDTA. The binding to the ORL1 receptor was determined using in each case 1 mg of WGA-SPA beads (Amersham-Pharmacia, Freiburg) by incubating the batch for one hour at room temperature followed by measurement in a Trilux scintillation counter (Wallac, Finland). The affinity is given as the Ki value.

ORL1 receptor [2] = molecular target: T1, ORL1 receptor; experiment: ORL1 reporter gene assay, agonist test (inhibition of cAMP-dependent luciferase formation); assay type: cell-based; parameters: A cDNA coding for the ORL1 receptor was cloned using standard methods from THP-1 cells; expressed in transfected cells; host or cells: CHO-K1/pSE66/K9/pZeoORL17/K21; conditions: agonist potency: concentration at semi-maximum inhibition of luciferase formation; CHO-K1 cells expressing human ORL1
Excerpt: (§1) The morphinan derivatives of the general formula I according to the invention were identified with a reporter gene system as ORL1 receptor agonists or as ORL1 receptor antagonists. This reporter gene system is based on the expression of the human ORL1 receptor in CHO-K1 cells, which carry a cAMP-sensitive luciferase gene (Wnendt et al., Regulatory Peptides, 80, 1999, p. 127 the entire disclosure of which is incorporated herein by reference). The formation of cAMP is induced by forskolin, an adenylate cyclase activator.
Also, they inhibit in a concentration-dependent manner luciferase formation due to the binding to the ORL1 receptor. The potency, expressed as the IC50 value, indicates the concentration at which the semi-maximum effect of the agonist is reached.
(§2) The reporter gene system was constructed as follows:
A cDNA coding for the ORL1 receptor was cloned using standard methods from THP-1 cells (European Cell Culture Collection, Porton Down, Great Britain) of a human monocyte cell line and integrated into the plasmid pZeoSV (Invitrogen, Leek, Netherlands). This plasmid, pZeoORL17, was used for the transfection of a cell line, CHO-K1/pSE66/K9, that contains the cAMP reporter plasmid pSE66. […]

ORL1 receptor [3] = molecular target: T1, ORL1 receptor; experiment: ORL1 reporter gene assay, antagonist test (cAMP-sensitive luciferase, forskolin-induced, in presence of 10 nM nociceptin/orphanin FQ); assay type: cell-based; parameters: A cDNA coding for the ORL1 receptor was cloned using standard methods from THP-1 cells; expressed in transfected cells; host or cells: CHO-K1/pSE66/K9/pZeoORL17/K21
Excerpt: as §1
The inhibition of luciferase formation due to the agonists is lifted to the extent that the antagonist binds to the ORL1 receptor. […] The effect of the antagonists is described by the pKB value.
as §2
A cDNA coding for the ORL1 receptor was cloned using standard methods from THP-1 cells (European Cell Culture Collection, Porton Down, Great Britain) of a human monocyte cell line and integrated into the plasmid pZeoSV (Invitrogen, Leek, Netherlands). This plasmid, pZeoORL17, was used for the transfection of a cell line, CHO-K1/pSE66/K9, that contains the cAMP reporter plasmid pSE66. The plasmid pSE66 was constructed on the basis of the plasmid pMAMneo-LUC (Clontech, Palo Alto, Calif.) by replacing the RSV promoter of this plasmid by a promoter region in which six CRE elements (cAMP-responsive elements, Comb et al., Nature, 323, 1986, pp. 353-356; Montminy et al., Proc. Natl. Acad. Sci. USA, 83, 1986, pp. 6682-6686; Short et al., J. Biol. Chem., 261, 1986, pp. 9721-9726) lie upstream of a promoter. The SV40 promoter derives from the plasmid pGL2-promoter (Promega, Madison, Wis.). The promoter region constructed in this way controls in the plasmid pSE66 the expression of the luciferase gene from pMAMneo-LUC. Furthermore, pSE66 carries a G418 resistance gene under the control of a further SV40 promoter. The cell line CHO-K1 (European Cell Culture Collection, Porton Down, Great Britain) was rendered stable with pSE66 and the clone CHO-K1/pSE66/K9 was selected for the transfection with pZeoORL17. […]

[4] = 0.5 nM 3H-N/OFQ, CHO-ORL1 membranes, WGA-SPA beads, one hour at room temperature, read-out: Ki (nM) ORL1 Binding Assay
[5] = read-out: PKB ORL1 Reporter Gene Assay (converted)

Molecule	Ki (ORL1 receptor [1]; [4])	IC50 (ORL1 receptor [2])	Ki (ORL1 receptor [1])	Kb (ORL1 receptor [3])	Kb (ORL1 receptor [3]; [5])
17-cyclopropylmethyl-6,7-didehydro-4,5α-epoxy-3-hydroxy-14-(methoxynaphthalene)1′-(β-methylnaphthalene)indolo-[6,7:2,′3′]-morphinan hydrochloride [Example 4]	982 nM	31.2 nM	–	–	–
17-cyclopropylmethyl-6,7-didehydro-4,5α-epoxy-14-hydroxy-3-benzyloxy-1′-(p-methoxycarbonylmethylphenyl)-indolo-[6,7:2,′3′]-morphinan hydrochloride [Example 5]	–	25.8 nM	–	–	–
C=CCN1CCC23c4c5ccc(O)c4OC2c2c(c4ccccc4n2Cc2ccccc2Cl)CC3(O)C1C5 (stereo not drawn) [Example 1, 17-allyl-6,7-didehydro-4,5α-epoxy-3,14-dihydroxy-1′-(o-chlorobenzyl)indolo-[6,7:2,′3′]-morphinan hydrochloride]	–	–	449 nM	42.7 nM	–
C=CCN1CCC23c4c5ccc(O)c4OC2c2c(c4ccccc4n2Cc2cccc(Cl)c2)CC3(OCc2cccc(Cl)c2)C1C5 (stereo not drawn) [Example 2, 17-allyl-6,7-didehydro-4,5α-epoxy-3-hydroxy-14-(m-chloromethoxyphenyl)1′-(m-chlorobenzyl)indolo[6,7:2,′3′]-morphinan hydrochloride]	1080 nM	–	–	–	102 nM
Oc1ccc2c3c1OC1c4c(c5ccccc5n4Cc4ccccc4Cl)CC4(OCc5ccccc5Cl)C(C2)N(CC2CC2)CCC314 (stereo not drawn) [Example 3, 17-cyclopropylmethyl-6,7-didehydro-4,5α-epoxy-3-hydroxy-14-(o-chloromethoxyphenyl)1′-(o-chlorobenzyl)-indolo[6,7:2,′3′]-morphinan hydrochloride]	718 nM	–	–	–	407 nM
